Experimental findings from patent US7927785B2, “Methods for in vitro expansion of hematopoietic stem cells” (The Board of Trustees of the University of Illinois, priority 2002, dated 2011) are described below.

The subject of test [1] is adult human bone marrow CD34+ cells. Kind of test: Colony-forming cell (CFC) assay in methylcellulose. It counts as cell-based. Conditions: for Total Number Colonies/plate / BFU-E / CFU-GM / CFU-Mix: cells after 9 days with cytokines, mean of 2 ± SEM; for BFU-E / CFU-GM / CFU-Mix: colonies/plate; for BFU (BFU-E colonies) / GM (CFU-GM colonies) / Mix (CFU-Mix colonies) / Total (colonies): mean of 3 experiments, 1000 unfractionated cells/plate after 9 days of culture, day 14; for Clonogenic potential: total colonies/number of cells plated×100; for Plating Efficiencies: total number of hematopoietic colonies/total cells plated × 100. How it is done: Colony-forming cells (CFC) were assayed under standard conditions in semisolid media as previously described (Brandt et al., Blood 94:106-113, 1999). Briefly 1×10^3 primary CD34^+ cells or unfractionated cultured cells exposed to different conditions used following 9 days of culture were plated in duplicate cultures containing 1 ml IMDM with 1.1% methylcellulose, 30% FBS, 5×10^−5 M 2-mercaptoethanol (Methocult, Stem Cell Technologies, Vancouver, BC, Canada), and a cocktail of growth factors including 100 ng/ml of SCF, 5 U/mL of EPO, 50 ng/mL of IL-3, 50 ng/mL of IL-6 and 50 ng/mL of G-CSF (Amgen Inc., Thousand Oaks, Calif.). The cells were plated into 35 mm tissue-culture dishes (Costar), and after 14 days of incubation at 37° C. in a 100%-humidified atmosphere containing 5% CO2, the colonies were scored with an inverted microscope following standard criteria (Breems et al., Leukemia, 8:1095-1104, 1994).

For test [2], the system named is CpG residue located at −256 position within the γ-globin promoter region. Kind of test: COBRA (Combined Bisulfite Restriction Analysis) of DNA methylation. It counts as cell-based, human. The procedure:
DNA was prepared from cultured CD34^+ cells (0.5-2.0×10^6 total cells) using the QIAamp DNA blood Minikit (Qiagen, Valencia, Calif.) according to manufacturer's instructions. The purified DNA was digested with 10-20 units Hind III at 37° C. for one hour followed by two extractions with a 50/50/1 mixture of phenol/chloroform/isoamyl:alcohol saturated with 0.5 M Tris, pH 7.5. The digested DNA was precipitated overnight at −20° C. in the presence of 2.5 volumes ethanol and 0.3 M sodium acetate, pH 7.0. DNA was harvested by centrifugation, washed 2× in 70% ethanol and dissolved in H2O.
DNA Denaturation was performed by incubation of 1-2 μg DNA in 10-20 μl 0.3 M NaOH at 37° C. for 20 minutes. Bisulfite modification was performed by the addition of 200 μl bisulfite solution (2.5 M sodium metabisulfite, 100 mM hydroquinone) prepared according to the method as described (Clark et al., Nucleic Acid Res. 22:2990-2997, 1994; Raizis et al., Anal. Biocem; 226:161-166, 1995; Xiong et al., Nucleic Acid Res., 2532-2534, 1997), followed by incubation for 4 hours at 50° C. […]
For COBRA (Combined Bisulfite Restriction Analysis), a 201 bp fragment of the γ-globin promoter region was amplified by two rounds of PCR using doubly nested primers. […] Digested products were analyzed by polyacrylamide gel electrophoresis (5% gel), visualized by staining with ethidium bromide, and quantified by densitometry.

As for `Nc1ncn([C@H]2C[C@H](O)[C@@H](CO)O2)c(=O)n1` [5azaD, 5-aza2′deoxycitidine], in test [1], the “Total Number Colonies/plate” value stood at 97.8 ± 11.1, the BFU-E was 4 ± 1.5, the CFU-GM turned out to be 73.0 ± 0.25 and the CFU-Mix was determined as 20.8 ± 9.3. In addition, in test [1], the “BFU (BFU-E colonies)” value was found to be 5, the “GM (CFU-GM colonies)” value worked out at 52, the “Mix (CFU-Mix colonies)” value is given as 27 and the “Total (colonies)” value turned out to be 84. Also, in test [1], the Clonogenic potential amounted to 8.4% and the “Plating Efficiencies” value is listed as 9.8 ± 1.1. Moreover, the “% Hypomethylation” value in test [2] (5 days of culture, 5azaD 10−6M, TSA 5 ng/ml, approximated) is 68%. In addition, in test [2] (cultured 5 days with cytokines, densitometry), the “% Methylation (COBRA, −256 position of γ-globin promoter)” value worked out at 32%.

In the case of `CC(/C=C/C(=O)NO)=C\[C@@H](C)C(=O)c1ccc(N(C)C)cc1` [TSA, Trichostatin A], in test [1], the “Total Number Colonies/plate” value was 14.3 ± 8.1, the BFU-E stood at 0.0, the CFU-GM stood at 13 ± 6.6 and the CFU-Mix came to 1.3 ± 0.8. Also, in test [1], the “BFU (BFU-E colonies)” value is given as 0, the “GM (CFU-GM colonies)” value worked out at 3, the “Mix (CFU-Mix colonies)” value was 0 and the “Total (colonies)” value is on record as 3. Also, in test [1], the Clonogenic potential stood at 0.3% and the “Plating Efficiencies” value amounted to 1.4 ± 0.8.
